Measured values taken from patent publication US20140107219A1, “LOCAL ANAESTHETIC” (VITA (EUROPE) LIMITED, priority 2011, published 2014).
Values joined by “and” are separate entries in the source; they are usually repeats but may differ in a detail not shown here. Equal values may be shown once. Read-outs that look alike come from different tables or passages of the source.

Columns and labels:
biceps muscle = test: In vivo muscle CAP (mCAP, EMG integral) after intramuscular injection, biceps muscle; conditions: 7.2 mg/kg intramuscular
[1] = biological target: T1, hNav1.2 sodium channels (SCN2A gene, expressed in CHO cells) (Homo sapiens, UniProt Q99250); test: Automated patch clamp (PatchXpress 7000A), cloned hNav1.2 in CHO cells, tonic and phasic; type: cell-based; conditions: for inhibition at 730 µg/mL / inhibition at 1460 µg/mL / inhibition at 2190 µg/mL / inhibition at 2920 µg/mL: CHO
T1 construct: expressed in transfected cells; host or cells: CHO cells
Excerpt: 1. Cloned hNav1.2 sodium channels (SCN2A gene, expressed in CHO cells). 2. Cloned hNav1.6 sodium channels (SCN8A gene, expressed in CHO cells).

Acute LD50 = type: in vivo; conditions: from acute LD50
[2] = test system: isolated sciatic nerve of the rat; test: Evoked compound action potential (CAP) of the isolated rat sciatic nerve in a three-chamber bath (ex vivo): inhibition and recovery after washout; conditions: for IT0: 15 mM (1.7 mg/mL)

T1 sequence (Q99250 whole entry): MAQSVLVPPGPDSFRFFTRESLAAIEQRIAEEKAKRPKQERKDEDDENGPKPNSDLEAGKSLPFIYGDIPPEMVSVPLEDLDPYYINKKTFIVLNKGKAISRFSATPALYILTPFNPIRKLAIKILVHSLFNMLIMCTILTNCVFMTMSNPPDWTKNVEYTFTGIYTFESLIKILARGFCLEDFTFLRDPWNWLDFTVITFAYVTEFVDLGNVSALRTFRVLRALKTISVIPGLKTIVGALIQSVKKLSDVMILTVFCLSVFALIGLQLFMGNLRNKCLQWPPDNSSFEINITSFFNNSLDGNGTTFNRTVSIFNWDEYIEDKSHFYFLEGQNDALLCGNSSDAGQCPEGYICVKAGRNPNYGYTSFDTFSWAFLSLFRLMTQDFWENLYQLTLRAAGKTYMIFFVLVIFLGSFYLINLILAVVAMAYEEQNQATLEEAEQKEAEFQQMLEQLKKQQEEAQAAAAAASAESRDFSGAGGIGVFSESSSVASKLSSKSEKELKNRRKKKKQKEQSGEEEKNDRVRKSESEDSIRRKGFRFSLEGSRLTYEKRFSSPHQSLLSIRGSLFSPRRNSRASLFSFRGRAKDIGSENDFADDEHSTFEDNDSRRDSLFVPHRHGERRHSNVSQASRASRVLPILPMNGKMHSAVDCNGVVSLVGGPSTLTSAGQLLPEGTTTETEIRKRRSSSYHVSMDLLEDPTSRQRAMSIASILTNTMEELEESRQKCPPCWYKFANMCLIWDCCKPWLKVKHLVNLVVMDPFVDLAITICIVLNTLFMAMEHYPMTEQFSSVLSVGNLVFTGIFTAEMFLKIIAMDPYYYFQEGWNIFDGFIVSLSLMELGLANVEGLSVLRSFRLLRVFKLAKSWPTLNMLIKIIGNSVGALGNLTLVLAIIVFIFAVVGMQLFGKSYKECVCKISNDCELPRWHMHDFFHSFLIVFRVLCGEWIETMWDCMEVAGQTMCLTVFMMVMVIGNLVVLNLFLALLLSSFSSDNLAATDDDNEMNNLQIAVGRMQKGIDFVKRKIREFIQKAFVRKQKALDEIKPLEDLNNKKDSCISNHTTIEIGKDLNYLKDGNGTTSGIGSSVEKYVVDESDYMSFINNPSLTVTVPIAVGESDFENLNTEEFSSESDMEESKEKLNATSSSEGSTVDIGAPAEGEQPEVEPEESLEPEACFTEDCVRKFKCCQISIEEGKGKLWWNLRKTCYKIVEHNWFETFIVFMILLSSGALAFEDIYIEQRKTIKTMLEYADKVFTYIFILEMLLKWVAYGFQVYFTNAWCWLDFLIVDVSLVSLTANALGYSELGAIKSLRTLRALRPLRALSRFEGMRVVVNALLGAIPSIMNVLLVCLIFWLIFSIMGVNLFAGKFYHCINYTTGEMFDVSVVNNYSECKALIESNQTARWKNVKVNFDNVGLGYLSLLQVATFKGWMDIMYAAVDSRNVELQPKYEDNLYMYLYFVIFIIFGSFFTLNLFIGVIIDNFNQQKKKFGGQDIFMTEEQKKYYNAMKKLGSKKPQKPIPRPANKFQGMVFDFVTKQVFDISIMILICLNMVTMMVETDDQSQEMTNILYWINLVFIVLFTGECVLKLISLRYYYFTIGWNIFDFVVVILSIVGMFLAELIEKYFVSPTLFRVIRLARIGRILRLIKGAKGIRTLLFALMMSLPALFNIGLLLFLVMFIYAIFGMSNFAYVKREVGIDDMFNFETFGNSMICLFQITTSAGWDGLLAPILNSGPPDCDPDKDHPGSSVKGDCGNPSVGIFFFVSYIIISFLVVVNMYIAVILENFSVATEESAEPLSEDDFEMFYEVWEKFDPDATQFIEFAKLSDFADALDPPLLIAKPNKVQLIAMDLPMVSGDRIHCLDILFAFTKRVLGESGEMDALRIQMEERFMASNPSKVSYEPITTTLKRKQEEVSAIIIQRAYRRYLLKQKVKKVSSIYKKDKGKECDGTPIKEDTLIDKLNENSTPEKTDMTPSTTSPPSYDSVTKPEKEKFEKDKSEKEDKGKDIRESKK

CCCCCC(C)=O [2-heptanone]
IT50 of mCAPs (biceps muscle): 9.13 ± 0.73 s and 9.13 s | times less active than lidocaine, hNav1.2 phasic [1]: 12.8 times | times less active than lidocaine, hNav1.2 tonic [1]: 7 times | Individual Data Points (% Inhibition), Nav1.2 phasic ([1]; 0.73 mg/ml, single cells): 44.6% | Individual Data Points (% Inhibition), Nav1.2 tonic ([1]; 0.73 mg/ml, single cells): 27. % | Individual Data Points (% Inhibition), Nav1.2 phasic ([1]; 1.46 mg/ml, single cells): 64.7% | Individual Data Points (% Inhibition), Nav1.2 tonic ([1]; 1.46 mg/ml, single cells): 45.8% | Individual Data Points (% Inhibition), Nav1.2 phasic ([1]; 2.19 mg/ml, single cells): 92.4% | Individual Data Points (% Inhibition), Nav1.2 tonic ([1]; 2.19 mg/ml, single cells): 73. % | Individual Data Points (% Inhibition), Nav1.2 phasic ([1]; 2.92 mg/ml, single cells): 99.8% | Individual Data Points (% Inhibition), Nav1.2 tonic ([1]; 2.92 mg/ml, single cells): 89. % | inhibition at 730 µg/mL ([1]; 0.73 mg/ml, single cells, read-out: Individual Data Points (% Inhibition), Nav1.2 phasic): 44.3% | inhibition at 730 µg/mL ([1]; 0.73 mg/ml, single cells, read-out: Individual Data Points (% Inhibition), Nav1.2 tonic): 31.5% | inhibition at 730 µg/mL ([1]; 0.73 mg/ml, read-out: Mean % Nav1.2 Phasic Inhibition): 44.4% | inhibition at 730 µg/mL ([1]; 0.73 mg/ml, read-out: Mean % Nav1.2 Tonic Inhibition): 29.7% | inhibition at 1460 µg/mL ([1]; 1.46 mg/ml, single cells, read-out: Individual Data Points (% Inhibition), Nav1.2 phasic): 67.9% | inhibition at 1460 µg/mL ([1]; 1.46 mg/ml, single cells, read-out: Individual Data Points (% Inhibition), Nav1.2 tonic): 49.3% | inhibition at 1460 µg/mL ([1]; 1.46 mg/ml, read-out: Mean % Nav1.2 Phasic Inhibition): 66.3% | inhibition at 1460 µg/mL ([1]; 1.46 mg/ml, read-out: Mean % Nav1.2 Tonic Inhibition): 47.6% | inhibition at 2190 µg/mL ([1]; 2.19 mg/ml, single cells, read-out: Individual Data Points (% Inhibition), Nav1.2 phasic): 87.6% | inhibition at 2190 µg/mL ([1]; 2.19 mg/ml, single cells, read-out: Individual Data Points (% Inhibition), Nav1.2 tonic): 56.7% | inhibition at 2190 µg/mL ([1]; 2.19 mg/ml, read-out: Mean % Nav1.2 Phasic Inhibition): 90% | inhibition at 2190 µg/mL ([1]; 2.19 mg/ml, read-out: Mean % Nav1.2 Tonic Inhibition): 65.1% | inhibition at 2920 µg/mL ([1]; 2.92 mg/ml, single cells, read-out: Individual Data Points (% Inhibition), Nav1.2 phasic): 98.2% | inhibition at 2920 µg/mL ([1]; 2.92 mg/ml, single cells, read-out: Individual Data Points (% Inhibition), Nav1.2 tonic): 78.7% | inhibition at 2920 µg/mL ([1]; 2.92 mg/ml, read-out: Mean % Nav1.2 Phasic Inhibition): 99% | inhibition at 2920 µg/mL ([1]; 2.92 mg/ml, read-out: Mean % Nav1.2 Tonic Inhibition): 83.9% | IC50 ([1]; Example 7, n=2, read-out: Nav1.2 phasic IC50 (converted)): 7.57 mM and 7.58 mM | IC50 ([1]; Example 7, n=2, read-out: Nav1.2 tonic IC50 (converted)): 12.1 mM | IC50 ([1]; Example 18, mean ± SEM, read-out: hNav1.2 IC50, phasic (converted)): 11.2 mM | IC50 ([1]; Example 18, mean ± SEM, read-out: hNav1.2 IC50, tonic (converted)): 16.6 mM | Hill coefficient, Nav1.2 phasic ([1]; FIG. 41, mean±SE): 1.24±0.17 | Hill coefficient, Nav1.2 tonic ([1]; FIG. 41, mean±SE): 1.44±0.02 | times less toxic than lidocaine (Acute LD50): 5.6 times | IT100 / IT0 ([2]; 1.41 mg/mL): 517.5 ± 25.62 s | IT100 / IT0 ([2]; 1.41 mg/mL, listed as 2-Heptanone): 517.5 ± 25.62 s | IT100 / IT0 ([2]; 2.28 mg/mL (20 mM)): 358.8 ± 18.07 s | IT100 / IT0 ([2]; 2.28 mg/mL (20 mM), listed as 2-Heptanone): 358.8 ± 18.07 s | IT50 (time to inhibit CAP amplitude to 50% of control) ([2]; 10 mg/mL): 22.3 ± 1.1 s | CAP decreased to (% of control) ([2]; 10 mg/mL, within 70 seconds of treatment): 24% | IT50 (time to inhibit CAP amplitude to 50% of control) ([2]; 10 mg/mL, listed as 2-Heptanone): 22.3 ± 1.1 s | IT0 ([2]; stagnant saline, n=5): 5 to 9 min | IT0 ([2]; stirred saline, individual nerves): 5 min and 10 min
